From ChEMBL document CHEMBL5726468, “Heterocyclic compounds and methods of use thereof” (2019)
“And” between values parts separate entries of the source, which are not always exact repeats. Equal values may be shown once.

Test: Huh 7.5.1 ATPlite assay : This example demonstrates the EC50 and CC50 values against HCV according to the HCVcc-RLuc reporter assay described in Example 5 and the cytotoxicity using the Huh 7.5.1 ATPlite assay for compounds in accordance with an embodiment of the invention.

Row | Structure (SMILES) | EC50 (Huh-7.5.1) [nM] | EC50
1 | Cc1cc(-c2nc(CN3CCC(C(=O)NCCCN4C[C@H](C)C[C@H](C)C4)CC3)co2)ccc1F | 38 | 
2 | Cc1ccccc1-c1nc(CN2CCC(C(=O)NCCCN3C[C@H](C)C[C@H](C)C3)CC2)c(C)s1 | 38 | 
3 | CCN(CC)CCCCNC(=O)C1CCN(CC2N=C(c3cc(OC)cc(OC)c3)OC2C)CC1 (stereo not drawn) | 6550 | 
4 | COc1cccc(F)c1C1=NC(CN2CCC(C(=O)NCCCN3C[C@H](C)C[C@H](C)C3)CC2)C(C)O1 (stereo partly drawn) | 455 | 
5 | Cc1cccc(Cl)c1C1=NC(CN2CCC(C(=O)NCCCN3C[C@H](C)C[C@H](C)C3)CC2)C(C)O1 (stereo partly drawn) | 14 | 
6 | Cc1ccc(C2=NC(CN3CCC(C(=O)NCCCN4C[C@H](C)C[C@H](C)C4)CC3)C(C)O2)cc1 (stereo partly drawn) | 100 | 
7 | CC1OC(c2c(Cl)cccc2Br)=NC1CN1CCC(C(=O)NCCCN2C[C@H](C)C[C@H](C)C2)CC1 (stereo partly drawn) |  | 178 nM and 386 nM
8 | CC1OC(c2ccc(Cl)c(Cl)c2)=NC1CN1CCC(C(=O)NCCCN2C[C@H](C)C[C@H](C)C2)CC1 (stereo partly drawn) | 13 | 
9 | CC1OC(c2c(Cl)cccc2Cl)=NC1CN1CCC(C(=O)NCCCN2C[C@H](C)C[C@H](C)C2)CC1 (stereo partly drawn) | 221 | 
10 | CC1OC(c2ccc(Cl)cc2)=NC1CN1CCC(C(=O)NCCCN2C[C@H](C)C[C@H](C)C2)CC1 (stereo partly drawn) | 110 | 
11 | Cc1ccccc1C1=NC(CN2CCC(C(=O)NCCCN3CCC(C)CC3)CC2)C(C)O1 (stereo not drawn) | 400 | 
12 | CC1OC(c2c(F)cccc2F)=NC1CN1CCC(C(=O)NCCCN2C[C@H](C)C[C@H](C)C2)CC1 (stereo partly drawn) | 624 | 
13 | Cc1cc(C)c(C2=NC(CN3CCC(C(=O)NCCCN4C[C@H](C)C[C@H](C)C4)CC3)C(C)O2)c(C)c1 (stereo partly drawn) | 190 | 
14 | CC1OC(c2ccc(F)cc2)=NC1CN1CCC(C(=O)NCCCN2C[C@H](C)C[C@H](C)C2)CC1 (stereo partly drawn) | 53 | 
15 | C[C@@H]1C[C@H](C)CN(CCCNC(=O)C2CCN(Cc3oc(-c4cc(C(F)(F)F)cc(C(F)(F)F)c4)nc3C(F)(F)F)CC2)C1 | 153 | 
16 | CCc1ccccc1C1=NC(CN2CCC(C(=O)NCCCN3C[C@H](C)C[C@H](C)C3)CC2)C(C)O1 (stereo partly drawn) | 140 | 
17 | Cc1ccccc1-c1nc(CN2CCC[C@@H](C(=O)NCCCN3C[C@H](C)C[C@H](C)C3)C2)c(C)o1 | 304 | 
18 | CC1CCCN(CCCNC(=O)C2CCN(Cc3oc(-c4cc(C(F)(F)F)cc(C(F)(F)F)c4)nc3C(F)(F)F)CC2)C1 (stereo not drawn) | 341 | 
19 | CC1OC(c2c(F)cccc2Cl)=NC1CN1CCC(C(=O)NCCCN2C[C@H](C)C[C@H](C)C2)CC1 (stereo partly drawn) | 334 | 
20 | Cc1cc(C)cc(C2=NC(CN3CCC(C(=O)NCCCN4C[C@H](C)C[C@H](C)C4)CC3)C(C)O2)c1 (stereo partly drawn) | 36 | 
21 | COc1cccc(Br)c1C1=NC(CN2CCC(C(=O)NCCCN3C[C@H](C)C[C@H](C)C3)CC2)C(C)O1 (stereo partly drawn) | 213 | 
22 | CC1OC(c2ccccc2Cl)=NC1CN1CCC(C(=O)NCCCN2C[C@H](C)C[C@H](C)C2)CC1 (stereo partly drawn) | 86 | 
23 | Cc1ccccc1C1=NC(CN2CCC(C(=O)NCCN3CCCCC3)CC2)C(C)O1 (stereo not drawn) | 1200 | 
24 | Cc1ccccc1C1=NC(CN2CCC(C(=O)N3CCN(CCN(C)C)CC3)CC2)C(C)O1 (stereo not drawn) | 6100 | 
25 | Cc1cccc(Cl)c1C1=NC(CN2CCC(C(=O)NCCCN3CCC(C)(C)CC3)CC2)C(C)O1 (stereo not drawn) | 220 | 
26 | Cc1ccc(C2=NC(CN3CCC(C(=O)NCCCN4C[C@H](C)C[C@H](C)C4)CC3)C(C)O2)cc1C (stereo partly drawn) | 98 | 
27 | COc1cc(OC)cc(C2=NC(CN3CCC(C(=O)NCCCN4CC(C)CC(C)C4)CC3)C(C)O2)c1 (stereo not drawn) | 680 | 
28 | Cc1ccccc1-c1nc(CC2CCC[C@@H](C(=O)CCCCN3C[C@H](C)C[C@H](C)C3)C2)c(C)o1 (stereo partly drawn) | 410 | 
